Measurements as given in patent US11944605B2, “Rapamycin analogs and uses thereof” (Janssen Pharmaceutica NV, priority 2018, dated 2024).
“Also recorded” adds a separate entry of the source.

How the values were obtained:
[1] = test system: mTORC1 pathway (pS6K1 T389) in PC3 cells; assay: Western blot, mTORC1 pathway (pS6K1) in PC3 cells; assay type: cell-based; conditions: PC3 cells
In short: (§1)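 Triton lysates analysed by Western blot for pS6K1 and pAkt, detected with IRDye 800 anti-rabbit secondary on a Li-Cor imager.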

[2] = test system: mTORC2 pathway (Akt phosphorylation) in PC3 cells; assay: Western blot, mTORC2 pathway (pAkt) in PC3 cells; assay type: cell-based; conditions: 24 hours
In short: as §1

[3] = test system: 4E-BP1 phosphorylation in PC3 cells; assay: Western blot, 4E-BP1 phosphorylation in PC3 cells; assay type: cell-based; conditions: 24 hours
[4] = test system: mTORC1 pathway in Jurkat cells; assay: Western blot, mTORC1 pathway in Jurkat cells; assay type: cell-based; conditions: 24 hrs
Description: (§2) The methods employed were substantially similar to those described above. Compounds were evaluated in PC3 cells, Jurkat cells, wild-type mouse embryotic fibroblast (MEF) cells, tuberous sclerosis 2 (TSC2) negative (TSC −/−) MEF cells, and tuberous sclerosis 2 (TSC2) positive (TSC +/+) MEF cells. Cells were incubated with compounds of the present invention for various time periods (e.g., 5 minutes, 15 minutes, 30 minutes, 90 minutes, 24 hours, or 48 hours), and evaluated according to known methodologies, such as those herein described.

[5] = test system: mTORC1 pathway in tuberous sclerosis (TSC2) negative (TSC−/−) MEF cells; assay: Western blot, mTORC1 pathway in TSC−/− MEF cells; assay type: cell-based, mouse
Description: as §2

[6] = test system: mTORC1 pathway in tuberous sclerosis 2 (TSC2) positive (TSC+/+) MEF cells; assay: Western blot, mTORC1 pathway in TSC+/+ MEF cells; assay type: cell-based, mouse
Description: as §2

[7] = test system: 4E-BP1 phosphorylation in TSC+/+ MEF cells; assay: Western blot, 4E-BP1 phosphorylation in TSC+/+ MEF cells; assay type: cell-based, mouse; conditions: 24 hours
Description: as §2

[8] = test system: mTORC1 pathway in wild-type MEF cells; assay: Western blot, mTORC1 pathway in wild-type MEF cells; assay type: cell-based, mouse
Description: as §2

[9] = test system: IFN-γ production; assay: IFN-γ production in allogenic mixed lymphocyte reaction; assay type: cell-based
Description: Assessment of Effect on IFN-γ Production in Allogenic Mixed Lymphocyte Reaction
The effect of rapamycin, everolimus, I-29, and I-117 on IFN-y production was evaluated in an allogenic mixed lymphocyte reaction (E.g., Eleftheriadis, T. et al., Int. J. Mol. Med., 37(5): 1412-20 (2016) https://doi.org/10.3892/ijmm.2016.2547).

[10] = test system: pS6K1 (p-p70 S6 Kinase (Thr389)) in MCF-7 cells; assay: AlphaLISA Ultra pS6K1 Assay; assay type: cell-based; conditions: Homo sapiens, 1.5 h; MCF7 cells, 90 min
In short: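 MCF-7 cells were seeded for 20–24 h, refed with fresh medium for 2 h, then treated with compound for 90 min at 0.5% final DMSO. Lysates were frozen at −80 °C, thawed and assayed by AlphaLISA with acceptor then donor beads, 2 h each.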

[11] = test system: mTORC1 over mTORC2; assay: mTORC1 selectivity over mTORC2 at 24 hrs (Western blot based pS6K1 and pAKT assay); assay type: cell-based; conditions: 24 hrs
[12] = test system: mTORC2 (Akt phosphorylation) in TSC+/+ MEF cells; assay: Western blot, mTORC2 pathway (pAkt) in TSC+/+ MEF cells; assay type: cell-based, mouse
Description: as §2

[13] = test system: mTORC2 (Akt phosphorylation) in wild-type MEF cells; assay: Western blot, mTORC2 pathway (pAkt) in wild-type MEF cells; assay type: cell-based, mouse; conditions: 24 hours
Description: as §2

IC50 ([9]; read-out: IFN-γ Inhibition IC50s) [nM] | IC50 [10] [nM] | Structure (SMILES) | inhibition of the mTORC1 pathway ([1]; 90 minutes) | inhibition of the mTORC1 pathway ([1]; 24 hours) | inhibition of mTORC2 (Akt phosphorylation) [2] | inhibition of 4E-BP1 phosphorylation [3] | inhibition of the mTORC1 pathway [4] | inhibition of the mTORC1 pathway ([5]; 90 minutes) | inhibition of the mTORC1 pathway ([5]; 24 hours) | inhibition of the mTORC1 pathway ([6]; 90 minutes) | inhibition of the mTORC1 pathway ([6]; 24 hours) | inhibition of 4E-BP1 phosphorylation [7] | inhibition of the mTORC1 pathway ([8]; 90 minutes) | inhibition of the mTORC1 pathway ([8]; 24 hours) | inhibition of IFN-γ production [9] | mTORC1 selective @ 24 hrs [11] | inhibition of mTORC2 (Akt phosphorylation) ([12]; 90 minutes) | inhibition of mTORC2 (Akt phosphorylation) ([12]; 24 hours) | inhibition of mTORC2 (Akt phosphorylation) [13]
15.2 | – | CO[C@H]1C[C@@H]2CC[C@@H](C)[C@@](O)(O2)C(=O)C(=O)N2CCCC[C@H]2C(=O)O[C@H]([C@H](C)C[C@@H]2CC[C@@H](OCCO)[C@H](OC)C2)CC(=O)[C@H](C)/C=C(\C)[C@@H](O)[C@@H](OC)C(=O)[C@H](C)C[C@H](C)/C=C/C=C/C=C/1C [Everolimus, everolimus, reference compound] | strong inhibition | strong inhibition | dose dependent inhibition | no inhibition | strong inhibition | strong inhibition | strong inhibition | strong inhibition | strong inhibition | no inhibition | strong inhibition | strong inhibition | significantly inhibited | – | – | – | –
– | < 0.1 | COCCOCCO[C@H]1C[C@@H]2CC[C@@H](C)[C@@](O)(O2)C(=O)C(=O)N2CCCC[C@H]2C(=O)O[C@H]([C@H](C)C[C@@H]2CC[C@@H](OCCO)[C@H](OC)C2)CC(=O)[C@H](C)/C=C(\C)[C@@H](O)[C@@H](OC)C(=O)[C@H](C)C[C@H](C)/C=C/C=C/C=C/1C [I-105, (22E,24E,26E,27E,35R,36S,37R,38R,40S,42S,44S,45S,46R,47R,56R)-46, 56-dihydroxy-45-[(1R)-2-[(1S,3R, 4R)-4-(2-hydroxyethoxy)-3-methoxy-cyclohexyl]-1-methyl-ethyl]-47-methoxy-44-[2-(2-methoxyethoxy)ethoxy]-35,36,37,38,48,49-hexamethyl-66, 67-dioxa-57-azatricyclohexatriaconta-22,24,26(48),27(49)-tetraene-50, 51,52,53,54-pentone] | – | – | – | – | – | – | – | strong inhibition | strong inhibition | no inhibition | – | moderate inhibition; also recorded: strong inhibition | – | YES | does not inhibit | do not inhibit | do not inhibit
